Earlier results on five molecules are cited in publication PMC4041784, “Stereoselective Property of 20(S)-Protopanaxadiol Ocotillol Type Epimers Affects Its Absorption and Also the Inhibition of P-Glycoprotein” (PLoS ONE, 2014).

For series [1] the following is noted: not told.
On the set-up of series [2]: method as in PMID 21258738, PMID 15734156.
The next series has as its system human fecal microflora. More on the design: method as in PMID 11824558.
The test system of series [3] is peroxisome proliferator activated receptor-γ. More on the design: method as in PMID 22234331.

On to `CC(C)=CCC[C@@](C)(O)[C@H]1CC[C@]2(C)[C@@H]1[C@H](O)C[C@@H]1[C@@]3(C)CC[C@H](O[C@@H]4O[C@H](CO)[C@@H](O)[C@H](O)[C@H]4O)C(C)(C)[C@@H]3CC[C@]12C` [20(R)-Rh2], for which the permeability in series [1] was 0.02 ×10⁻⁶ cm/s.

For `CC(C)=CCC[C@](C)(O)[C@H]1CC[C@]2(C)[C@@H]1[C@H](O)C[C@@H]1[C@@]3(C)CC[C@H](O[C@@H]4O[C@H](CO)[C@@H](O)[C@H](O)[C@H]4O)C(C)(C)[C@@H]3CC[C@]12C` [Rh2, ginsenoside Rh2], the oral bioavailability result in series [2] is “less than 5%”. For `CC(C)=CCC[C@](C)(O)[C@H]1CC[C@]2(C)[C@@H]1[C@H](O)C[C@@H]1[C@@]3(C)CC[C@H](O[C@@H]4O[C@H](CO)[C@@H](O)[C@H](O)[C@H]4O[C@@H]4O[C@H](CO)[C@@H](O)[C@H](O)[C@H]4O)C(C)(C)[C@@H]3CC[C@]12C` [Rg3, Ginsenoside Rg3], the oral bioavailability result in series [2] is “less than 5%”. Regarding 20(S)-Rg3, in the series on human fecal microflora, the “transformation amount into 20(S)-Rh2 or 20(S)-PPD relative to 20(R)-Rg3” value is reported as 19 fold. Further, the “peroxisome proliferator activated receptor-γ activity relative to 20(R)-Rg3” value in series [3] was 10 fold. In the case of `CC(C)=CCCC(C)(O)C1CCC2C1C(O)CC1C2(C)CCC2C(C)(C)C(OC3OC(CO)C(O)C(O)C3O)CCC21C` [20(S)-Rh2], in series [1], the permeability was 0.3 ×10⁻⁶ cm/s; the “permeability difference between 20(R)-Rh2 and 20(S)-Rh2” value is listed as 15 folds.
